# Source: patent publication US12653803B2, “TREM2 agonists for the stimulation of microglia and methods of identification” (THE TRANSLATIONAL GENOMICS RESEARCH INSTITUTE, priority 2017, dated 2026)
# Entries after “also recorded” stand apart in the source; their conditions may differ.
# Legend:
# TREM2/TYROBP = biological target: T1, TREM2/TYROBP (Homo sapiens, UniProt Q9NZC2); assay: TREM2/TYROBP/NFAT-Luc luciferase reporter cell line screen (primary screen); assay type: cell-based; details: for stimulation of reporter activity in the TREM2 screening cell line: TREM2/TYROBP/NFAT-Luc cells, positive controls: sphingomyelin at increasing concentrations or 120 μg/mL, PMA (1.5 ng/mL)/Ionomycin (375 nM)
# T1 construct: stably co-expressing full-length TREM2, full-length TYROBP, and a reporter (e.g., firefly luciferase) driven by NFAT-response elements; expressed in transfected cells; host or cells: BW5147.3 mouse T-lymphocyte cell line, lentiviral transduction (pTYF vectors)
# T1 sequence (Q9NZC2 19-230, species assumed): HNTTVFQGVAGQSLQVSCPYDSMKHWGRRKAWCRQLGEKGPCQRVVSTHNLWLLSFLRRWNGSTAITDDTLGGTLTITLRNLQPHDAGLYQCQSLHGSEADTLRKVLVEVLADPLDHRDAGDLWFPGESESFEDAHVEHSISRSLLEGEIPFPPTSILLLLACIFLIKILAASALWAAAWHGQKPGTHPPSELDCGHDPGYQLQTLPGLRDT
# T1 sequence (O43914 22-113 partner, species assumed): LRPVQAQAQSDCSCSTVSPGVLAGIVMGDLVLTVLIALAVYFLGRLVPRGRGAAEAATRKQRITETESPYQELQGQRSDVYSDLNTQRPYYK
# Text: (§1) Cell-based reporter assays were developed for identifying TREM2 agonists. A mouse T-lymphocyte cell line, BW5147.3, stably co-expressing full-length TREM2, full-length TYROBP, and a reporter (e.g., firefly luciferase) driven by NFAT-response elements, was established (FIG. 2). The parental BW5147.3 cells have no detectable expression of TREM2 or TYROBP (FIG. 4B) and can be used as a counter screen cell-line to identify false positive compounds that stimulate reporter expression independent of TREM2 and TYROBP. BW5147.3 lymphocytes play a central role in the immune system and have high viability (99-100%) in culture.
# TREM2 and TYROBP geneArt double-stranded cDNA strings were synthesized (Life Technologies, Carlsbad, CA) and subcloned into pTYF lentiviral vectors to generate a pLenti expression clone. HEK293HT cells were next transfected using Superfect (Qiagen, Venlo, Netherlands), and viral particles were collected and concentrated. Stable expression of TREM2, TYROBP, and the Cignal Lenti NFAT Reporter (Luc) (Qiagen, Venlo, Netherlands) in BW5147.3 cells was accomplished by transduction in opti-MEM media (Life Technologies, Carlsbad, CA) containing 6 μg/ml Polybrene (Sigma-Aldrich, St. Louis, MO). […]
# TREM2/TYROBP-NFAT-Luc cell line for HTS was optimized by testing TREM2-stimulated Luc-reporting as a function of growth medium, agonist concentration, induction time, assay duration, and cell density. […] Firefly luciferase levels were measured by chemiluminescence (Bright-Glo™, Promega, WI). […] The effect of reported TREM2 agonists to be served as positive controls were measured (FIG. 5), and the specific stimulation of our reporter through TREM2 by known ligand sphingomyelin was confirmed (FIG. 5).
# The primary screening assay was conducted with a concentration of 5 μM for each of the 2,400 compounds (final 0.05% or 0.1% DMSO (v/v)) with two replicate screens with internal replicates. […] Subsequently, Luciferase activity was measured using Bright-Glo™ (Promega, Madison, WI).
# NFAT reporter = assay: BW-NFAT-Luc counter screen (NFAT reporter only, no TREM2/TYROBP); assay type: cell-based, mouse; details: for stimulation of the NFAT-Luc reporter-only counter screen cell line: NFAT-Luc cells without TREM2/TYROBP, sphingomyelin (120 μg/mL in counter screen)
# Text: as §1
# A counter screen cell line only expressing the Cignal Lenti NFAT Reporter (luc) was also created in parallel to the reporter (BW-NFAT-Luc cell line). The BW-NFAT-Luc cell line has the same MOI as the TREM2/TYROBP-NFAT-Luc cell line (MOI=20) but without expression of TREM2 or TYROBP.
# Transmembrane signaling via TREM2 is accomplished through an ITAM-bearing trans-membrane adaptor protein, TYROBP or DAP12. TREM2 activation leads to the induction of transcription factor NFAT. Activation of TREM2 by ligands leads to the phosphorylation of TYROBP, the activation of the reporter, and quantitative production of luciferase. Previous studies using TREM2/TYROBP/NFAT reporter cell-lines have confirmed the stimulation of NFAT transcription following TREM2 activation. Compounds that directly stimulate NFAT signaling (stimulate luciferase activity in the BW-NFAT-Luc cell line) are eliminated as false positive. Thus, the counter screen with BW-NFAT-Luc cell line eliminates the false positive hits and confirms hits from TREM2/TYROBP cell lines screened.
# To eliminate the false positive hits from the primary screen that might directly stimulate NFAT signaling, a counter screen was performed with the initial 27 compounds using the BW-NFAT-Luc cell line alone. […] The primary screen with the TREM2/TYROBP Luciferase reporter cell line identified Tyrphostin AG 538 as a positive hit with a relative luminescence of 16.08 (FIG. 6A). […]
"relative luminescence (TREM2/TYROBP; primary screen, 5 μM, duplicates, 8 h treatment, TREM2/TYROBP/NFAT-Luc reporter cell line, relative to DMSO vehicle)",stimulation of reporter activity in the TREM2 screening cell line (TREM2/TYROBP; listed as sphingomyelin),Compound,"direct stimulation of the NFAT reporter in the counter screen (NFAT reporter; NFAT-Luc reporter cell line, 1.5, 3, 6 and 12.5 μM)",stimulation of reporter activity in the TREM2 screening cell line (TREM2/TYROBP),stimulation of the NFAT-Luc reporter-only counter screen cell line (NFAT reporter),stimulation of the NFAT-Luc reporter-only counter screen cell line (NFAT reporter; listed as SM)
16.08,–,N#C/C(=C\c1ccc(O)c(O)c1)C(=O)c1ccc(O)c(O)c1 [Tyrphostin AG 538],did not stimulate the NFAT reporter directly,–,–,–
–,induce reporter activity,Sphingomyelin,–,stimulates; also recorded: similarly positive results,did not show direct stimulation of the NFAT reporter,did not show any activity
